Here are results for 20 molecules from US12202818B2, “Compounds and methods for CD73 modulation and indications therefor” (Opna Bio SA, priority 2020, dated 2025).

The target in experiment [1] is T1, Human CD73 (amino acid residues 27-549) (Homo sapiens, UniProt P21589).
T1 construct: Human CD73 (amino acid residues 27-549); His tag (N); made in house; host or cells: E. coli
T1 sequence (P21589 27-549): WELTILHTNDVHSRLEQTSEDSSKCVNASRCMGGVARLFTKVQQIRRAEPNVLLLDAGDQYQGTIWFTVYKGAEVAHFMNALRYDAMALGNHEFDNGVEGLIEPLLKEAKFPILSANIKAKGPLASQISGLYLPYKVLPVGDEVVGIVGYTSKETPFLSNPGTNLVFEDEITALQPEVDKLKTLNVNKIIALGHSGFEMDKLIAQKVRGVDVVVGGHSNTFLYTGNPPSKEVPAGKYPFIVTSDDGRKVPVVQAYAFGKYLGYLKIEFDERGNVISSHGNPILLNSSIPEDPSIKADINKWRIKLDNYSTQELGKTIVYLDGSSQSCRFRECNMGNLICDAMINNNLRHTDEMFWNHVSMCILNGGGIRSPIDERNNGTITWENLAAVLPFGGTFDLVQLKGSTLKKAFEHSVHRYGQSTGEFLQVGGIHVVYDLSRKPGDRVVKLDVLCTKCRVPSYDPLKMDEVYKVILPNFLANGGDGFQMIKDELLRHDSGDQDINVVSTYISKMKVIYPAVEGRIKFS
The experiment can be described thus: CD73 enzymatic assay (luciferase-based indirect assay, CellTiter-Glo). Format: biochemical. The settings on record: 0.4 nM CD73, 150 μM AMP, 1 hour at room temperature. An outline of the steps:
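Luciferase-coupled readout: AMP left after CD73 turnover suppresses CellTiter-Glo signal (1 μM ATP final, 30 min RT). Reaction beforehand: 150 μM AMP, 0.4 nM E. coli-made His-tagged CD73 residues 27-549, test compound, HEPES pH 7.4 with Tween-20, 1 h RT. % inhibition fitted nonlinearly for IC50.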
In general terms: Cellular ATP, detected with luciferase, serves as a proxy for viable cell number.

Another experiment deals with T2, human CD73 (Homo sapiens, UniProt P21589).
T2 construct: expressed in transfected cells
T2 sequence (P21589 27-549): T1 sequence (P21589 27-549)
Nature of the experiment: Inhibitor activity against CD73 in cell based assay (CD73 expressing CHO-K1 cells). The settings on record: CHO-K1 cells expressing human CD73, 150 μM AMP, 4 hours of incubation; read-out: CHO-K1 CELL_VARIANT: CD73 IC50. In outline:
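AMP (150 μM) was added alongside 8 titrated compound doses (maximum 10 μM, 1:3 steps) to CHO-K1 cells stably expressing human CD73. After 4 h, supernatant AMP was measured indirectly with CellTiter-Glo 2.0 plus 1 μM ATP (30 min, RT). % inhibition versus high and low controls was fitted nonlinearly for IC50.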

SMILES strings stand for the structures.

The IC50 is the point on the concentration scale where inhibition reaches its midpoint. On to `Cc1noc(C)c1-c1cc(F)nc(O[C@@H]2CCN(c3cn[nH]c(=O)c3Cl)C2)c1` [P-0195, (R)-4-chloro-5-(3-((4-(3,5-dimethylisoxazol-4-yl)-6-fluoropyridin-2-yl)oxy)pyrrolidin-1-yl)pyridazin-3(2H)-one], for which the 50% inhibitory concentration (IC50) (in experiment [1]; at human CD73) was 0.001 to 10 µM each time.
As to `Cc1nn(C)c(C)c1-c1ccnc(O[C@@H]2CCN(c3cnn(CCCO)c(=O)c3Cl)C2)c1` [P-0127, (R)-4-chloro-2-(3-hydroxypropyl)-5-(3-((4-(1,3,5-trimethyl-1H-pyrazol-4-yl)pyridin-2-yl)oxy)pyrrolidin-1-yl)pyridazin-3(2H)-one], the IC50 (in experiment [1]; at human CD73) was 0.001 to 10 µM each time.
Consider `COc1ccc2c(c1)cc(-c1ccnc(O[C@@H]3CCN(c4cnn(CCO)c(=O)c4Cl)C3)c1)n2C` [P-0106, (R)-4-chloro-2-(2-hydroxyethyl)-5-(3-((4-(5-methoxy-1-methyl-1H-indol-2-yl)pyridin-2-yl)oxy)pyrrolidin-1-yl)pyridazin-3(2H)-one], for which the IC50 (in experiment [1]; on human CD73) was 0.001 to 10 µM in each case.
For the molecule `Cc1nn(C)c(C)c1-c1ccnc(O[C@@H]2CCN(c3cnn(CC(O)CO)c(=O)c3Cl)C2)c1` (stereo partly drawn) [P-0131, 4-chloro-2-(2,3-dihydroxypropyl)-5-((R)-3-((4-(1,3,5-trimethyl-1H-pyrazol-4-yl)pyridin-2-yl)oxy)pyrrolidin-1-yl)pyridazin-3(2H)-one], the IC50 (in experiment [1]; at human CD73) was 0.001 to 10 µM throughout.
Consider `O=C(Nc1ccc(-c2ccnc(O[C@@H]3CCN(c4cn[nH]c(=O)c4Cl)C3)c2)c(F)c1)C1CCCC1` [P-0206, (R)-N-(4-(2-((1-(5-chloro-6-oxo-1,6-dihydropyridazin-4-yl)pyrrolidin-3-yl)oxy)pyridin-4-yl)-3-fluorophenyl)cyclopentane-carboxamide], for which the IC50 (in experiment [1]; at human CD73) was 0.001 to 10 µM each time.
Turning to `Cc1nn(CC2(F)COC2)c(C)c1-c1cc(F)nc(O[C@@H]2CCN(c3cn[nH]c(=O)c3Cl)C2)c1` [P-0133, (R)-4-chloro-5-(3-((6-fluoro-4-(1-((3-fluorooxetan-3-yl)methyl)-3,5-dimethyl-1H-pyrazol-4-yl)pyridin-2-yl)oxy)pyrrolidin-1-yl)pyridazin-3(2H)-one], the 50% inhibitory concentration (IC50) (in experiment [1]; on human CD73) was 0.001 to 10 µM each time.
Take `Cc1nn(C)c(C)c1-c1cc(O[C@@H]2CCN(c3cnn(CCO)c(=O)c3Cl)C2)ncc1F` [P-0115, (R)-4-chloro-5-(3-((5-fluoro-4-(1,3,5-trimethyl-1H-pyrazol-4-yl)pyridin-2-yl)oxy)pyrrolidin-1-yl)-2-(2-hydroxyethyl)pyridazin-3(2H)-one]: the 50% inhibitory concentration (IC50) (in experiment [1]; on human CD73) was 0.001 to 10 µM each time.
Regarding `O=c1[nH]ncc(N2CC[C@@H](Oc3cc(N4CCN(S(=O)(=O)NC5CC5)CC4)ccn3)C2)c1Cl` [P-0229, (R)-4-(2-((1-(5-chloro-6-oxo-1,6-dihydropyridazin-4-yl)pyrrolidin-3-yl)oxy)pyridin-4-yl)-N-cyclopropylpiperazine-1-sulfonamide], the IC50 (in experiment [1]; at human CD73) was 0.001 to 10 µM each time.
As to `N#CCC1CCN(c2ccnc(O[C@@H]3CCN(c4cn[nH]c(=O)c4Cl)C3)c2)CC1` [P-0030, (R)-2-(1-(2-((1-(5-chloro-6-oxo-1,6-dihydropyridazin-4-yl)pyrrolidin-3-yl)oxy)pyridin-4-yl)piperidin-4-yl)acetonitrile], the IC50 (in experiment [1]; on human CD73) was 0.001 to 10 µM in each case.
Regarding `Cc1nn(C)c(C)c1-c1ccnc(O[C@@H]2CCN(c3cn[nH]c(=O)c3Cl)C2)c1` [P-0203, (R)-4-chloro-5-(3-((4-(1,3,5-trimethyl-1H-pyrazol-4-yl)pyridin-2-yl)oxy)pyrrolidin-1-yl)pyridazin-3(2H)-one], the IC50 (in experiment [1]; at human CD73) was 0.001 to 10 µM in each case.
Turning to `COc1cc(S(=O)(=O)NC2CC2)ccc1-c1ccnc(O[C@@H]2CCN(c3cn[nH]c(=O)c3Cl)C2)c1` [P-0227, (R)-4-(2-((1-(5-chloro-6-oxo-1,6-dihydropyridazin-4-yl)pyrrolidin-3-yl)oxy)pyridin-4-yl)-N-cyclopropyl-3-methoxybenzenesulfonamide], the IC50 (in experiment [1]; at human CD73) was 0.001 to 10 µM each time.
In the case of `O=c1[nH]ncc(N2CC[C@@H](Oc3cncc(O[C@@H]4CCN(c5cn[nH]c(=O)c5Cl)C4)c3)C2)c1Cl` [P-0163, 5,5′-((3R,3′R)-(pyridine-3,5-diylbis(oxy))bis(pyrrolidine-3,1-diyl))bis(4-chloropyridazin-3(2H)-one)], the IC50 (in experiment [1]; on human CD73) was 0.001 to 10 µM in each case.
For `Cc1noc(C)c1-c1cc(F)nc(O[C@H]2CN(c3cnn(CCO)c(=O)c3Cl)C[C@@H]2F)c1` [P-0188, 4-chloro-5-((3S,4S)-3-((4-(3,5-dimethylisoxazol-4-yl)-6-fluoropyridin-2-yl)oxy)-4-fluoropyrrolidin-1-yl)-2-(2-hydroxyethyl)pyridazin-3(2H)-one], the IC50 (in experiment [1]; at human CD73) was 0.001 to 10 µM in each case.
Turning to `Cc1nn(CC(C)(CO)CCl)c(C)c1-c1cc(F)nc(O[C@@H]2CCN(c3cn[nH]c(=O)c3Cl)C2)c1` (stereo partly drawn) [P-0185, 4-chloro-5-((3R)-3-((4-(1-(3-chloro-2-(hydroxymethyl)-2-methylpropyl)-3,5-dimethyl-1H-pyrazol-4-yl)-6-fluoropyridin-2-yl)oxy)pyrrolidin-1-yl)pyridazin-3(2H)-one], the IC50 (in experiment [1]; on human CD73) was 0.001 to 10 µM each time.
In the case of `O=c1[nH]ncc(N2CC[C@@H](Oc3cc(-c4ccc(C(F)(F)F)nc4)ccn3)C2)c1Cl` [P-0231, (R)-4-chloro-5-(3-((6-(trifluoromethyl)-[3,4′-bipyridin]-2′-yl)oxy)pyrrolidin-1-yl)pyridazin-3(2H)-one], the half-inhibitory concentration (IC50) (in experiment [1]; at human CD73) was 0.001 to 10 µM in each case.
Take `O=c1[nH]ncc(N2CC[C@@H](Oc3cc(-c4cnn(C5CCNCC5)c4)ccn3)C2)c1Cl` [P-0002, (R)-4-chloro-5-(3-((4-(1-(piperidin-4-yl)-1H-pyrazol-4-yl)pyridin-2-yl)oxy)pyrrolidin-1-yl)pyridazin-3(2H)-one]: the IC50 (in experiment [1]; at human CD73) was 0.001 to 10 µM throughout.
As to `Nc1ccc(-c2ccnc(O[C@@H]3CCN(c4cn[nH]c(=O)c4Cl)C3)c2)c(F)c1` [P-0220, (R)-5-(3-((4-(4-amino-2-fluorophenyl)pyridin-2-yl)oxy)pyrrolidin-1-yl)-4-chloropyridazin-3(2H)-one], the IC50 (in experiment [1]; on human CD73) was 0.001 to 10 µM throughout.
Consider `Cc1noc(C)c1-c1cnnc(O[C@@H]2CCN(c3cn[nH]c(=O)c3Cl)C2)c1` [P-0158, (R)-4-chloro-5-(3-((5-(3,5-dimethylisoxazol-4-yl)pyridazin-3-yl)oxy)pyrrolidin-1-yl)pyridazin-3(2H)-one], for which the IC50 (in experiment [1]; on human CD73) was 0.001 to 10 µM in each case.
As to `Cc1nn(CC(=O)O)c(C)c1-c1ccnc(O[C@@H]2CCN(c3cn[nH]c(=O)c3Cl)C2)c1` [P-0045, (R)-2-(4-(2-((1-(5-chloro-6-oxo-1,6-dihydropyridazin-4-yl)pyrrolidin-3-yl)oxy)pyridin-4-yl)-3,5-dimethyl-1H-pyrazol-1-yl)acetic acid], the IC50 (in experiment [1]; at human CD73) was 0.001 to 10 µM throughout.
On to `CCCn1nc(C)c(-c2cc(F)nc(O[C@@H]3CCN(c4cn[nH]c(=O)c4Cl)C3)c2)c1C` [P-0165, (R)-4-chloro-5-(3-((4-(3,5-dimethyl-1-propyl-1H-pyrazol-4-yl)-6-fluoropyridin-2-yl)oxy)pyrrolidin-1-yl)pyridazin-3(2H)-one], for which the IC50 (in experiment [1]; at human CD73) was 0.001 to 10 µM each time.
